From article PMC8851638 (ACS Omega, 2022)
Converted amounts (≈) assume the structure as drawn. “And” between values parts separate entries of the source, which are not always exact repeats. Equal entries are not always repeated.

Key:
S. aureus (MDR00231) [1] = assay: Agar well-diffusion antimicrobial sensitivity assay; type: cell-based, Staphylococcus aureus; settings: for Inhibition Zone (IZ): S. aureus, 100 mg/mL in DMSO, 50 μL per well, ± SD
[2] = system: S. epidermidis (MDR00223); assay: as above; type: cell-based, Staphylococcus epidermidis; settings: for Inhibition Zone (IZ): S. epidermidis, 100 mg/mL in DMSO, 50 μL per well, ± SD
B. subtilis (MDR00423) [3] = assay: as above; type: cell-based; settings: 100 mg/mL in DMSO, 50 μL per well, ± SD
E. coli (MDR00501) [4] = assay: as above; type: cell-based; settings: for Inhibition Zone (IZ): E. coli, 100 mg/mL in DMSO, 50 μL per well, ± SD
A. baumannii (MDR00521) [5] = assay: as above; type: cell-based; settings: 100 mg/mL in DMSO, 50 μL per well, ± SD
K. pneumoniae (MDR00244) [6] = assay: as above; type: cell-based; settings: 100 mg/mL in DMSO, 50 μL per well, ± SD
[7] = system: C. albicans100 (MDR00100); assay: as above; type: cell-based, Candida albicans; settings: for Inhibition Zone (IZ): C. albicans100, 100 mg/mL in DMSO, 50 μL per well, ± SD
[8] = system: C. albicans200 (MDR00200); assay: as above; type: cell-based, Candida albicans; settings: for Inhibition Zone (IZ): C. albicans200, 100 mg/mL in DMSO, 50 μL per well, ± SD
S. aureus (MDR00231) [9] = assay: MIC and MBC by broth microdilution; type: cell-based, Staphylococcus aureus
[10] = system: S. epidermidis (MDR00223); assay: MIC and MBC by broth microdilution; type: cell-based, Staphylococcus epidermidis
B. subtilis (MDR00423) [11] = assay: MIC and MBC by broth microdilution; type: cell-based
E. coli (MDR00501) [12] = assay: MIC and MBC by broth microdilution; type: cell-based
A. baumannii (MDR00521) [13] = assay: MIC and MBC by broth microdilution; type: cell-based; settings: ratio in parentheses
K. pneumoniae (MDR00244) [14] = assay: MIC and MBC by broth microdilution; type: cell-based; settings: ratio in parentheses
[15] = system: C. albicans100 (MDR00100); assay: MIC and MFC by broth microdilution; type: cell-based, Candida albicans
[16] = system: C. albicans200 (MDR00200); assay: MIC and MFC by broth microdilution; type: cell-based, Candida albicans
S. aureus biofilm = assay: Staphylococcus biofilm mass reduction; type: cell-based; settings: at their MIC
S. epidermidis biofilm = assay: Staphylococcus biofilm mass reduction; type: cell-based; settings: at their MIC
S. aureus [17] = assay: Single-step resistance selection; type: cell-based, Staphylococcus aureus; settings: 4 × MIC, 48 h
S. epidermidis = assay: Single-step resistance selection; type: cell-based, Staphylococcus epidermidis; settings: 4 × MIC, 48 h
B. subtilis = assay: Single-step resistance selection; type: cell-based; settings: 4 × MIC, 48 h
E. coli [18] = assay: Single-step resistance selection; type: cell-based; settings: 4 × MIC, 48 h
A. baumannii [19] = assay: Single-step resistance selection; type: cell-based; settings: 4 × MIC, 48 h
K. pneumoniae = assay: Single-step resistance selection; type: cell-based; settings: 4 × MIC, 48 h
C. albicans100 = assay: Single-step resistance selection; type: cell-based, Candida albicans; settings: 4 × MIC, 48 h
C. albicans200 [20] = assay: Single-step resistance selection; type: cell-based, Candida albicans; settings: 4 × MIC, 48 h
S. aureus [21] = assay: Checkerboard combination assay with Ciprofloxacin; type: cell-based, Staphylococcus aureus
E. coli [22] = assay: Checkerboard combination assay with Ciprofloxacin; type: cell-based
A. baumannii [23] = assay: Checkerboard combination assay with Ciprofloxacin; type: cell-based
C. albicans200 [24] = assay: Checkerboard combination assay with Ketoconazole; type: cell-based, Candida albicans
RBCs = assay: Hemolytic assay; type: cell-based; settings: human RBCs; compounds 1.0 mg/mL; Triton X-100 0.1% v/v; 37 °C, 35 min
E. coli DNA gyrase = E. coli DNA gyrase (Escherichia coli, UniProt P0AES4+P0AES6); assay: DNA gyrase inhibition; type: biochemical
[25] = target: T1, dihydrofolate reductase (DHFR) (Homo sapiens, UniProt P00374); assay: DHFR inhibition; type: biochemical
T1 sequence (P00374 1-187): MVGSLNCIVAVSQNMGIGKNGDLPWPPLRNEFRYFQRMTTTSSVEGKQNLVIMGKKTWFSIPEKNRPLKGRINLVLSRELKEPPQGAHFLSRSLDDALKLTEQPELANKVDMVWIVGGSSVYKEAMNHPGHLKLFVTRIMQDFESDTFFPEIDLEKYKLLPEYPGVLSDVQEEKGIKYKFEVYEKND

[26] = In vitro cytotoxicity on normal cell line; type: cell-based, mouse; settings: mouse, BNL normal liver cells
[27] = system: BNL: mouse normal liver cells; assay: In vitro cytotoxicity on normal cell line; type: cell-based
[28] = In vitro cytotoxicity on normal cell line; type: cell-based, green monkey; settings: green monkey, Vero kidney cells
[29] = system: Vero: green monkey kidney; assay: In vitro cytotoxicity on normal cell line; type: cell-based
[30] = In vitro cytotoxicity on normal cell line; type: cell-based, rat; settings: rat, H9C2 heart/myocardium cells
[31] = system: H9C2: rat heart/myocardium; assay: In vitro cytotoxicity on normal cell line; type: cell-based
Gram-negative bacteria = assay: MIC broth microdilution, Gram-negative panel; type: cell-based; settings: Gram-negative bacteria used in this study
[32] = system: clinical pathogenic isolates; assay: Single-step resistance selection, whole panel; type: cell-based; settings: 4 × MIC
[33] = Candida albicans, read-out: Inhibition Zone (IZ)

Chain of E. coli DNA gyrase (P0AES4 whole entry, one chain of several): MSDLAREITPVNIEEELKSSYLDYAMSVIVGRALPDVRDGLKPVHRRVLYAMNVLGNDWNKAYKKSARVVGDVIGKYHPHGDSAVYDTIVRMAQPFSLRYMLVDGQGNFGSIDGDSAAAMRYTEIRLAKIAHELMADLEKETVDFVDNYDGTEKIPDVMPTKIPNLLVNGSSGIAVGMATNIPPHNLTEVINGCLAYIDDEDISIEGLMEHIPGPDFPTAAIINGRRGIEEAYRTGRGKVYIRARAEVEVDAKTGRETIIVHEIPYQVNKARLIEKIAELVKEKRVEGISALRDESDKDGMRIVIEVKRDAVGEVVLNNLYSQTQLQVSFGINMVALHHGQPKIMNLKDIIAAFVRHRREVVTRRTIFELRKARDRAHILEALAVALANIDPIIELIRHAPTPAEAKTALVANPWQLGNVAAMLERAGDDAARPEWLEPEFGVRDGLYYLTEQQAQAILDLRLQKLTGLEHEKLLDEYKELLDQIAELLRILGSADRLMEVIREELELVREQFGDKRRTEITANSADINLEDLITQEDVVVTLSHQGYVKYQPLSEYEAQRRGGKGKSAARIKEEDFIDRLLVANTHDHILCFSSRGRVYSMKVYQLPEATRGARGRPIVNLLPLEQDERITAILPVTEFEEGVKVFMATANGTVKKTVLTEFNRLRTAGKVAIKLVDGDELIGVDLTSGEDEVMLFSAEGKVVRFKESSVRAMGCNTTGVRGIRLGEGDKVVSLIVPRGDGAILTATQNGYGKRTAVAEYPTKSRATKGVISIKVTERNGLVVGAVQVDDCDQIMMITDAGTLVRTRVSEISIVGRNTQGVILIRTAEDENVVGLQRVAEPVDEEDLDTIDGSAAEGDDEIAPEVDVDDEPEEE

In the case of N#CC=c1[nH]c(=O)c(=Cc2cn(-c3ccccc3)nc2-c2ccccc2)s1 [Compound 3a, 2-(5-((1,3-Diphenyl-1H-pyrazol-4-yl)methylene)-4-oxothiazolidin-2-ylidene)acetonitrile], the “Inhibition Zone (IZ)” value (S. aureus (MDR00231) [1]) is reported as “-ve”, the “Inhibition Zone (IZ)” value [2] is reported as “-ve” and the “Inhibition Zone (IZ)” value (B. subtilis (MDR00423) [3]) is reported as “-ve”. For the same molecule, the “Inhibition Zone (IZ)” value (E. coli (MDR00501) [4]) was “-ve”, the “Inhibition Zone (IZ)” value (A. baumannii (MDR00521) [5]) was “-ve” and the “Inhibition Zone (IZ)” value (K. pneumoniae (MDR00244) [6]) was “-ve”. The “Inhibition Zone (IZ)” value [7] was “-ve” and the “Inhibition Zone (IZ)” value [8] was “-ve”.

Molecule Cc1c(NC(=O)CC2=NC(=O)CS2)c(=O)n(-c2ccccc2)n1C [Compound 10, N-(1,5-Dimethyl-3-oxo-2-phenyl-2,3-dihydro-1H-pyrazol-4-yl)-2-(4-oxo-4,5-dihydrothiazol-2-yl)acetamide] has a zone of inhibition at 100000 µg/mL (S. aureus (MDR00231) [1]; Staphylococcus aureus, read-out: Inhibition Zone (IZ)) of 27 ± 0.21 mm, a zone of inhibition at 100000 µg/mL ([2]; Staphylococcus epidermidis, read-out: Inhibition Zone (IZ)) of 26 ± 0.4 mm and a zone of inhibition at 100000 µg/mL (E. coli (MDR00501) [4]; Escherichia coli, read-out: Inhibition Zone (IZ)) of 25 ± 0.22 mm. It also gave a zone of inhibition at 100000 µg/mL [7, 33] of 28 ± 0.88 mm, a zone of inhibition at 100000 µg/mL [8, 33] of 30 ± 0.55 mm and an MBC/MIC (S. aureus (MDR00231) [9]; S. aureus, ratio in parentheses) of 1. The MIC (S. aureus (MDR00231) [9]; Staphylococcus aureus, read-out: MIC (mean ± SEM), S. aureus, broth microdilution) was 0.95 ± 0.2 µg/mL (≈ 2.76 µM), the MBC/MIC ([10]; S. epidermidis, ratio in parentheses) was 1 and the MIC ([10]; Staphylococcus epidermidis, read-out: MIC (mean ± SEM), S. epidermidis, broth microdilution) was 0.97 ± 0.4 µg/mL (≈ 2.82 µM). It also gave an MBC/MIC (B. subtilis (MDR00423) [11]; B. subtilis, ratio in parentheses) of 2, an MIC (B. subtilis (MDR00423) [11]; Bacillus subtilis, read-out: MIC (mean ± SEM), B. subtilis, broth microdilution) of 0.98 ± 0.1 µg/mL (≈ 2.85 µM) and an MBC/MIC (E. coli (MDR00501) [12]; E. coli, ratio in parentheses) of 1. The MIC (E. coli (MDR00501) [12]; Escherichia coli, read-out: MIC (mean ± SEM), E. coli, broth microdilution) was 0.46 ± 0.4 µg/mL (≈ 1.34 µM), the MBC/MIC (A. baumannii (MDR00521) [13]) was 0.5 and the MBC/MIC (K. pneumoniae (MDR00244) [14]) was 1. For the same molecule, the MFC/MIC ([15]; C. albicans100, ratio in parentheses) was 2, the MIC ([15]; Candida albicans, read-out: MIC (mean ± SEM), C. albicans100, broth microdilution) was 0.95 ± 0.3 µg/mL (≈ 2.76 µM) and the MFC/MIC ([16]; C. albicans200, ratio in parentheses) was 1. For the same molecule, the MIC ([16]; Candida albicans, read-out: MIC (mean ± SEM), C. albicans200, broth microdilution) was 0.47 ± 0.1 µg/mL (≈ 1.36 µM), the “reduction of biofilm formation” value (S. aureus biofilm) was 55.6% and the “reduction of biofilm formation” value (S. epidermidis biofilm) was 53.3%. For the same molecule, the “Single-step resistance frequency (mutation frequency)” value (shortened to “Single-step resistance frequency”) (S. aureus [17]) was 2.41 × 10^–8, the “Single-step resistance frequency” value (S. epidermidis) was 3.00 × 10^–8 and the “Single-step resistance frequency” value (B. subtilis) was 3.50 × 10^–8. For the same molecule, the “Single-step resistance frequency” value (E. coli [18]) was 2.60 × 10^–8, the “Single-step resistance frequency” value (A. baumannii [19]) was 2.53 × 10^–8 and the “Single-step resistance frequency” value (K. pneumoniae) was 2.61 × 10^–8. The “Single-step resistance frequency” value (C. albicans100) was 3.33 × 10^–8, the “Single-step resistance frequency” value (C. albicans200 [20]) was 3.50 × 10^–8 and the combination effect (S. aureus [21]) was “S (S: synergism)”. For the same molecule, the “fractional inhibitory concentration index (FICI)” value (S. aureus [21]) was 0.5, the combination effect (E. coli [22]) was “S (S: synergism)” and the “fractional inhibitory concentration index (FICI)” value (E. coli [22]) was 0.5. For the same molecule, the combination effect (A. baumannii [23]) was “S (S: synergism)”, the “fractional inhibitory concentration index (FICI)” value (A. baumannii [23]) was 0.5 and the combination effect (C. albicans200 [24]) was “S (S: synergism)”. The “fractional inhibitory concentration index (FICI)” value (C. albicans200 [24]) was 0.5, the “%lysis of RBCs” value (RBCs) was 11.66% and 11.66 ± 0.231% and the IC50 (E. coli DNA gyrase) was 28.88 ± 0.12 µM. For the same molecule, the IC50 [25] was 1420 ± 230 nM, the IC50 at 72 h [26] was 98.9 ± 1.54 µM and the “Selectivity index against DHFR” value ([27]; IC50 of BNL / IC50 of DHFR) was 69.64. The “Selectivity index against DNA gyrase” value ([27]; IC50 of BNL / IC50 of DNA gyrase) was 3.42, the IC50 at 72 h [28] was 70.06 ± 0.34 µM and the “Selectivity index against DHFR” value ([29]; IC50 of Vero / IC50 of DHFR) was 49.33. The “Selectivity index against DNA gyrase” value ([29]; IC50 of Vero / IC50 of DNA gyrase) was 2.42, the IC50 at 72 h [30] was 99.8 ± 1.84 µM and the “Selectivity index against DHFR” value ([31]; IC50 of H9C2 / IC50 of DHFR) was 70.26. The “Selectivity index against DNA gyrase” value ([31]; IC50 of H9C2 / IC50 of DNA gyrase) was 3.45, the “MIC, range over panel” value (Gram-negative bacteria) was 0.43 to 0.98 µg/mL and the “mutation frequency, range over panel” value [32] was 2.41 × 10^–8 to 3.50 × 10^–8.

In the case of Cc1c(NN=C2SC3=C(C#N)C(c4ccccc4)C(C#N)=C(N)N3C2=O)c(=O)n(-c2ccccc2)n1C (stereo not drawn) [Compound 16a, 5-Amino-2-(2-(1,5-dimethyl-3-oxo-2-phenyl-2,3-dihydro-1H-pyrazol-4-yl)hydrazono)-3-oxo-7-phenyl-2,3-dihydro-7H-thiazolo[3,2-a]pyridine-6,8-dicarbonitrile], the “Inhibition Zone (IZ)” value (S. aureus (MDR00231) [1]) is reported as “-ve”, the “Inhibition Zone (IZ)” value [2] is reported as “-ve” and the “Inhibition Zone (IZ)” value (B. subtilis (MDR00423) [3]) is reported as “-ve”. For the same molecule, the “Inhibition Zone (IZ)” value (E. coli (MDR00501) [4]) was “-ve”, the “Inhibition Zone (IZ)” value (A. baumannii (MDR00521) [5]) was “-ve” and the “Inhibition Zone (IZ)” value (K. pneumoniae (MDR00244) [6]) was “-ve”. The “Inhibition Zone (IZ)” value [7] was “-ve” and the “Inhibition Zone (IZ)” value [8] was “-ve”.

For Cc1c(NN=C2SC3=C(C#N)C(c4ccc(Cl)cc4)C(C#N)=C(N)N3C2=O)c(=O)n(-c2ccccc2)n1C (stereo not drawn) [Compound 16b, 5-Amino-7-(4-chlorophenyl)-2-(2-(1,5-dimethyl-3-oxo-2-phenyl-2,3-dihydro-1H-pyrazol-4-yl)hydrazono)-3-oxo-2,3-dihydro-7H-thiazolo[3,2-a]pyridine-6,8-dicarbonitrile], the “Inhibition Zone (IZ)” value (S. aureus (MDR00231) [1]) was “-ve”, the “Inhibition Zone (IZ)” value [2] was “-ve” and the “Inhibition Zone (IZ)” value (B. subtilis (MDR00423) [3]) was “-ve”. For the same molecule, the “Inhibition Zone (IZ)” value (E. coli (MDR00501) [4]) was “-ve”, the “Inhibition Zone (IZ)” value (A. baumannii (MDR00521) [5]) was “-ve” and the “Inhibition Zone (IZ)” value (K. pneumoniae (MDR00244) [6]) was “-ve”. The “Inhibition Zone (IZ)” value [7] was “-ve” and the “Inhibition Zone (IZ)” value [8] was “-ve”.
